These results are taken from publication PMC9585082, “Structural insight into the ligand binding mechanism of aryl hydrocarbon receptor” (Nature Communications, 2022).

Molecules are shown by their SMILES.

Experiment [1] addresses T1, mAHR (Mus musculus, UniProt P30561).
T1 construct: gene Ahr; full-length
T1 sequence (P30561 10-848): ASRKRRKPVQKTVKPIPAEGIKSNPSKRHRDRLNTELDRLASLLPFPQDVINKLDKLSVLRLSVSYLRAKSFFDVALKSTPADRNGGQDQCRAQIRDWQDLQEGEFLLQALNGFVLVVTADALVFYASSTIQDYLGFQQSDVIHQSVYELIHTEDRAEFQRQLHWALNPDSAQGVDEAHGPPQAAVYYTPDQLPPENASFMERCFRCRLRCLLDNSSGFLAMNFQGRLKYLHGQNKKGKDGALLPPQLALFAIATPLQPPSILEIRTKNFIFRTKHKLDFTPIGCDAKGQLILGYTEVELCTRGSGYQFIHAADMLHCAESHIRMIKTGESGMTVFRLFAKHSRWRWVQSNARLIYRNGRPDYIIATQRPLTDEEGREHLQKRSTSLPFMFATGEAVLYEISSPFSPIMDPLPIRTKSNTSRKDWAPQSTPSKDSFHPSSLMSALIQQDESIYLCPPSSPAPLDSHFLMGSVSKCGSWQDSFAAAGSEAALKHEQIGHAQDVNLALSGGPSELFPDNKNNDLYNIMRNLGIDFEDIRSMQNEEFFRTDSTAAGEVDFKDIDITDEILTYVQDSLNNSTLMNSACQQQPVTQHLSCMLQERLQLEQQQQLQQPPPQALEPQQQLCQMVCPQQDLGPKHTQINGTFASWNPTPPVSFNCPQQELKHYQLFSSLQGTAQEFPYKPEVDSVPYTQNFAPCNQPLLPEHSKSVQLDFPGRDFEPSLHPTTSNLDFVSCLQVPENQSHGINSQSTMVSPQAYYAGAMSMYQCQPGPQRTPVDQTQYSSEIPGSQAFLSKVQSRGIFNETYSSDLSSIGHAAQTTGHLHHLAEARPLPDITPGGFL
Put plainly: DRE luciferase reporter assay in HEK293T expressing mAHR (agonist at […]). In kind it is cell-based. The text has this:
FICZ, βNF and BaP were supplied

Experiment [2] deals with T2, dAHR PAS-B (Drosophila melanogaster, UniProt O61543, M284C/Y336L).
T2 construct: gene ss; PAS-B domain (residues 264–381)
Put plainly: label-free MST. The format is binding.

T2 sequence (O61543 entry or part of it M284C/Y336L): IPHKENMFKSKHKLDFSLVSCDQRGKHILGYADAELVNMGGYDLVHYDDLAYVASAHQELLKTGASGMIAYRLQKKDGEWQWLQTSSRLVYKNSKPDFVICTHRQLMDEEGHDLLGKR

Consider `c1ccc2c(c1)cc1ccc3cccc4ccc2c1c34` [BaP], for which the “DRE luciferase reporter assay in HEK293T expressing mAHR (agonist at 200 nM)” value in experiment [1] was “transactivation of mAHR in HEK293T cells in the presence or absence of agonists. FICZ, βNF and BaP were supplied”.
For the compound `O=Cc1c2[nH]c3ccccc3c2cc2[nH]c3ccccc3c12` [FICZ], the “DRE luciferase reporter assay in HEK293T expressing mAHR (agonist at 200 nM)” value in experiment [1] was “transactivation of mAHR in HEK293T cells in the presence or absence of agonists. FICZ, βNF and BaP were supplied”. In experiment [2], this compound came in with a dissociation constant Kd of roughly 0.8 µM.
With `O=c1cc(-c2ccccc2)oc2ccc3ccccc3c12` [βNF], the “DRE luciferase reporter assay in HEK293T expressing mAHR (agonist at 500 nM)” value in experiment [1] is “transactivation of mAHR in HEK293T cells in the presence or absence of agonists. FICZ, βNF and BaP were supplied”. Further, the Kd in experiment [2] was roughly 0.4 µM.
